“Also recorded” adds a separate entry of the source.
How the values were obtained:
SH-SY5Y cells = experiment: Cytoprotection against rotenone/oligomycin A, pre-incubation, MTT; type: cell-based, human; conditions: for Cytoprotective properties in the pre-incubation assay (in words): rotenone/oligomycin A, range of concentration 1–0.001 µM; for Cytoprotection: pre-incubation with rotenone/oligomycin A;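 as to Cytoprotection: Toxic mixture Rotenone 30 µM plus Oligomycin A 10 µM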
Protocol: Rotenone with oligomycin A (R/O) were taken to induce mitochondrial ROS by blocking of complexes I and V of the mitochondrial electron transport chain. It causes free radical production and blockade of ATP synthesis. In the pre-incubation experiment, it could be assessed whether the compounds have cytoprotective properties due to the activation of endogenous antioxidant pathways. In the co-incubation could be shown whether compounds are free-radical scavengers. MTT assay was a test of choice, because in this assay mitochondrial activity is measured. […] It can be determined whether novel compound would protect cells from both apoptotic and necrotic death resulting from the increase of intracellular ROS. In both experiments, trolox was used as a reference compound. […] After this time, toxic mixture was added, and cells were maintained for an additional 24 h in the presence of the compounds.

PARP-1 = experiment: Western blot of PARP-1 cleavage, A549; type: cell-based, human; conditions: A549, 24 h, IC50 and 1/2IC50
Protocol: Then, cells were treated with chosen compounds. After 24 h of incubation, monolayer and supernatant were harvested and washed in cold PBS. Cells were centrifuged—monolayer at 1200 rpm for 10 min, supernatant 3500 rpm for 10 min. Pellets were dissolved in RIPA Lysis and Extraction buffer (Bio-Rad) containing Phosphatase Inhibitor Cocktail 3 (Sigma Aldrich) and Protease Inhibitor Cocktail (Sigma Aldrich). Samples were incubated in ice for 30 min and mixed every 10 min. Then, samples were centrifuged at 12,000 rpm for 25 min. Protein concentration in supernatants was measured in triplicate using a Protein Assay (Bio-Rad). Proteins were separated by SDS–polyacrylamide gel electrophoresis. Separating and stacking gels were made of different ratios of water, Tris–HCl pH 6.8 and pH 8.8, 10% SDS (Sigma Aldrich), Acrylamide/bis-acrylamide (Sigma Aldrich), 10% APS (Sigma Aldrich), TEMED (Sigma Aldrich). 7.5% gels were prepared for analysis PARP-1, whereas 12% gels prepared for γ-H2AX. After separation on SDS–polyacrylamide gels, proteins were electroblotted on nitrocellulose membrane in Transfer Buffer (Glycine, Tris, Methanol). Membranes were washed in TBS/0.1% or 0.05% Tween20 solution and blocked in Tris-buffered saline with 5% of non-fated dried milk for 1 h. Membranes were then incubated overnight with primary antibodies—anti-PARP-1 (Cell Signaling Technology), anti-γ-H2A.X (Cell Signaling Technology), anti-β-actin (Cell Signaling Technology) in cold room (6 °C). After incubation, membranes well washed with TBS/Tween solution and blocked with and horseradish peroxidase-conjugated secondary antibodies (Bio-Rad) for 1 h in cold room. Protein bands were visualized using ECL™ Prime Western Blotting Detection Reagents (Sigma Aldrich) Healthcare and Carestream Kodak autoradiography GBX fixer/replenisher (Sigma Aldrich) with Developer and Replenisher (Carestream) in the dark room. Results were obtained on Autoradiography Film (Santa Cruz Biotechnology). Densitometric analysis was performed by using a software program (ImageJ). […]

A549 cells = experiment: Apoptosis assay by annexin-V/PI double staining, A549; type: cell-based, human; conditions: A549, 24 h, compound at 2xIC50 (1i 29.74 µM); control 7.80%
Protocol: Compounds were added to the cells and further incubated for 24 h. After treatment, monolayer and supernatant cells were harvested, washed with PBS and centrifuged (monolayer at 1200 rpm for 10 min, supernatant at 3500 rpm for 10 min). Then, cells were re-suspended in binding buffer and stained with 2 µL of Annexin-V and […] of PI (ANNEXIN-V—FITC Apoptosis Detection Kit, Immunostep) in the dark for 10 min at room temperature. Cells were analysed by BD Accuri C6 Flow Cytometry (Becton–Dickinson). Etoposide (Calbiochem) was used as a reference drug. Experiments were done in triplicates.

supercoiled pUC19 DNA = conditions: 100 µM; human Topoisomerase I
[1] = biological target: T1, hyaluronidase from bovine testes Type I-S (Bos taurus, UniProt Q2YDK3); experiment: Hyaluronidase inhibition assay (turbidimetric); type: biochemical; conditions: read-out: HYAL IC50 ± SD
T1 construct: purchased Sigma Aldrich; host or cells: bovine testes (tissue-derived preparation)
T1 sequence (Q2YDK3 36-553): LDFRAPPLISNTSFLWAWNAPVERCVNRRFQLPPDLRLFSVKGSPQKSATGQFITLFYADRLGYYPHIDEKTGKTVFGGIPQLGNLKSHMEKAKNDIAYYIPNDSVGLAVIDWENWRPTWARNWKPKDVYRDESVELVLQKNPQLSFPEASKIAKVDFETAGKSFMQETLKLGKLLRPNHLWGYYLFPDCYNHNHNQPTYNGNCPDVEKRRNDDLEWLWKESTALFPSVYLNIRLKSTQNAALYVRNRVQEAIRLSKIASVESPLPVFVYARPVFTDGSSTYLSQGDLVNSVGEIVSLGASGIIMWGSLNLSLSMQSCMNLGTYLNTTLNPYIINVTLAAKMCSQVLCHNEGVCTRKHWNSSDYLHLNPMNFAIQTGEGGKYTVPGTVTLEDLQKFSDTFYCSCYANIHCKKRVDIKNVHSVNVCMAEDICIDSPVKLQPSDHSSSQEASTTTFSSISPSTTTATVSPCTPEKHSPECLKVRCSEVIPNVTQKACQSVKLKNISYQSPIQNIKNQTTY

**Q.** `O=C(NCCCNc1c2c(nc3ccccc13)CCCC2)c1ccccc1I` [Compound 1b] was tested. Which “Cytoprotective properties in the pre-incubation assay (in words)” value (SH-SY5Y cells) did it give?
**A.** did not show cytoprotective properties

**Q.** And the “Cleaved PARP-1 (89 kDa) level (in words)” value (PARP-1)?
**A.** comparable apoptotic effect at their IC50 concentrations

**Q.** And the Total apoptotic cells (A549 cells)?
**A.** 45.31%

**Q.** And the “Intercalation: supercoiled pUC19 DNA band (in words)” value (supercoiled pUC19 DNA)?
**A.** bands at the same level as EB

**Q.** And the IC50 [1]?
**A.** 233 ± 4.87 µM

**Q.** What does the source list for `O=C(NCCCNc1c2c(nc3ccccc13)CCCC2)c1cccc(I)c1` [Compound 1e]?
**A.** Cytoprotection (SH-SY5Y cells; 0.001 µM): 36.22%; Cytoprotection (SH-SY5Y cells; 0.01 µM): 51.19%; Cytoprotection (SH-SY5Y cells; 0.1 µM): 46.39%; Cytoprotection (SH-SY5Y cells; 1 µM): 24.79%; Cytoprotective properties in the pre-incubation assay (in words) (SH-SY5Y cells): showed their action against oxidative stress in the whole range of concentrations; Cleaved PARP-1 (89 kDa) level (in words) (PARP-1): comparable apoptotic effect at their IC50 concentrations; also recorded: highest PARP-1 cleavage was observed for 1/2IC50 (11.75 µM); Total apoptotic cells (A549 cells): 44.96%; Intercalation: supercoiled pUC19 DNA band (in words) (supercoiled pUC19 DNA): bands at the same level as EB; IC50 [1]: 231 ± 5.64 µM

**Q.** Which results are given for `O=C(NCCCCNc1c2c(nc3ccccc13)CCCC2)c1ccccc1I` [Compound 1c]?
**A.** Cytoprotection (SH-SY5Y cells; 0.001 µM): 32.91%; Cytoprotection (SH-SY5Y cells; 0.01 µM): 37.05%; Cytoprotection (SH-SY5Y cells; 0.1 µM): 33.15%; Cytoprotection (SH-SY5Y cells; 1 µM): 33.92%; Cytoprotective properties in the pre-incubation assay (in words) (SH-SY5Y cells): showed their action against oxidative stress in the whole range of concentrations; Intercalation: supercoiled pUC19 DNA band (in words) (supercoiled pUC19 DNA): bands at the same level as EB; IC50 [1]: 244 ± 7.95 µM

**Q.** How did the “Cytoprotective properties in the pre-incubation assay (in words)” value (SH-SY5Y cells) turn out when `O=C(NCCCCNc1c2c(nc3ccccc13)CCCC2)c1ccc(I)cc1` [Compound 1i] was run?
**A.** did not show cytoprotective properties

**Q.** What about the “Cleaved PARP-1 (89 kDa) level (in words)” value (PARP-1) of the same compound?
**A.** highest effect

**Q.** What about the Total apoptotic cells (A549 cells) of the same compound?
**A.** 71.98%

**Q.** And the IC50 [1]?
**A.** 234 ± 8.98 µM
